Measured values reported in ChEMBL document CHEMBL1201862, “PubChem BioAssay data set” (2004).
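Tested at 5 concentrations; 48 h exposure; 96-well plates; endpoints linearly interpolated, else capped at highest concentration. GI50 marks 50% less growth.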 The source made the active and inactive calls. Cut-off read from the data, not from the text of the source: active = GI50 up to about 1.1 µM and inactive = higher.

What was measured:
Assay in all cases: NCI anticancer screen, dose series, 48 h
K562 = system: K562
HCT-15 = system: HCT-15
SK-MEL-2 = system: SK-MEL-2
OVCAR-5 = system: OVCAR-5
CAKI-1 = system: CAKI-1
SNB-19 = system: SNB-19
SF-539 = system: SF-539
SK-OV-3 = system: SK-OV-3
NCI-H522 = system: NCI-H522
NCI-H226 = system: NCI-H226
SNB-75 = system: SNB-75
HT-29 = system: HT-29
UO-31 = system: UO-31
MOLT-4 = system: MOLT-4
M14 = system: M14
NCI-H460 = system: NCI-H460
SR = system: SR
U-251 = system: U-251

| SMILES | GI50 (K562) | GI50 (HCT-15) [µM] | GI50 (SK-MEL-2) | GI50 (OVCAR-5) | GI50 (CAKI-1) | GI50 (SNB-19) | GI50 (SF-539) | GI50 (SK-OV-3) | GI50 (NCI-H522) | GI50 (NCI-H226) | GI50 (SNB-75) | GI50 (HT-29) | GI50 (UO-31) | GI50 (MOLT-4) | GI50 (M14) | GI50 (NCI-H460) | GI50 (SR) | GI50 (U-251) |
| --- | --- | --- | --- | --- | --- | --- | --- | --- | --- | --- | --- | --- | --- | --- | --- | --- | --- | --- |
| COC(=O)C(=O)C(C(=O)C(=O)Nc1cccc(C(C)=O)c1)c1nc2ccccc2nc1O (configuration not stated) | > 100 µM (inactive) | > 100 | > 100 µM (inactive) | > 100 µM (inactive) | > 100 µM (inactive) | > 100 µM (inactive) | > 100 µM (inactive) | > 100 µM (inactive) | > 100 µM (inactive) | > 100 µM (inactive) | > 100 µM (inactive) | > 100 µM (inactive) | > 100 µM (inactive) | > 100 µM (inactive) | > 100 µM (inactive) | > 100 µM (inactive) | – | – |
| CC(=O)NNc1nc(C)c(C(/C=C/c2ccc(Cl)cc2)=N\N=C(N)N)s1 | > 100 µM (inactive) | > 100 | – | > 100 µM (inactive) | > 100 µM (inactive) | > 100 µM (inactive) | > 100 µM (inactive) | > 100 µM (inactive) | > 100 µM (inactive) | > 100 µM (inactive) | > 100 µM (inactive) | > 100 µM (inactive) | > 100 µM (inactive) | > 100 µM (inactive) | 82.6 µM (inactive) | > 100 µM (inactive) | > 100 µM (inactive) | > 100 µM (inactive) |
| O=C1CSc2cc([N+](=O)[O-])ccc2N1 | > 100 µM (inactive) | > 100 | > 100 µM (inactive) | > 100 µM (inactive) | > 100 µM (inactive) | > 100 µM (inactive) | > 100 µM (inactive) | > 100 µM (inactive) | > 100 µM (inactive) | > 100 µM (inactive) | 22.1 µM (inactive) | > 100 µM (inactive) | – | > 100 µM (inactive) | > 100 µM (inactive) | > 100 µM (inactive) | – | > 100 µM (inactive) |
| N#CC(C(=O)CCC(=O)Nc1ccc(Cl)cc1)c1ccc(Cl)cc1 (configuration not stated) | 18.9 µM (inactive) | > 100 | > 100 µM (inactive) | > 100 µM (inactive) | 92.5 µM (inactive) | > 100 µM (inactive) | > 100 µM (inactive) | > 100 µM (inactive) | > 100 µM (inactive) | > 100 µM (inactive) | – | > 100 µM (inactive) | > 100 µM (inactive) | > 100 µM (inactive) | 52 µM (inactive) | > 100 µM (inactive) | – | > 100 µM (inactive) |
| Cc1ccc(S(=O)(=O)N/N=C/c2oc(-c3ccccc3Cl)c(-c3ccccc3Cl)c2[N+](=O)[O-])cc1 | 12.9 µM (inactive) | – | 25 µM (inactive) | 17.5 µM (inactive) | 36.9 µM (inactive) | 15.6 µM (inactive) | 22.4 µM (inactive) | 45 µM (inactive) | 6.07 µM (inactive) | – | – | 31.2 µM (inactive) | 17.8 µM (inactive) | 11.5 µM (inactive) | 31 µM (inactive) | 13.2 µM (inactive) | 7.64 µM (inactive) | – |
| CCCCCCC1=NOC(C(c2cc[nH]c2)N(C)[C@H](C(=O)OC)C(C)C)C1 (some centres not stated) | 39.2 µM (inactive) | – | 25.8 µM (inactive) | > 100 µM (inactive) | > 100 µM (inactive) | 65.9 µM (inactive) | 57 µM (inactive) | > 100 µM (inactive) | 16.1 µM (inactive) | 51.1 µM (inactive) | 55.6 µM (inactive) | 34 µM (inactive) | 61.7 µM (inactive) | 19.4 µM (inactive) | 51.8 µM (inactive) | – | 23.6 µM (inactive) | 49.5 µM (inactive) |
| CCN(CC)CC(=O)NC1c2ccccc2Oc2c(C)cccc21 (configuration not stated) | 53.1 µM (inactive) | > 100 | – | > 100 µM (inactive) | – | > 100 µM (inactive) | > 100 µM (inactive) | > 100 µM (inactive) | – | > 100 µM (inactive) | 49.5 µM (inactive) | > 100 µM (inactive) | 23.2 µM (inactive) | 62.7 µM (inactive) | > 100 µM (inactive) | > 100 µM (inactive) | 57.7 µM (inactive) | – |
| N#CC12Cc3ccc4c(c3-c3cccc(c31)CCN2C(=O)c1ccccc1)OCO4 (configuration not stated) | > 100 µM (inactive) | > 100 | – | > 100 µM (inactive) | – | > 100 µM (inactive) | > 100 µM (inactive) | > 100 µM (inactive) | > 10 µM (inactive) | > 100 µM (inactive) | 34.7 µM (inactive) | > 100 µM (inactive) | > 100 µM (inactive) | > 100 µM (inactive) | > 100 µM (inactive) | – | > 100 µM (inactive) | > 100 µM (inactive) |
| O=CC1=CCC2c3[nH]c4ccccc4c3CCN2C1 (configuration not stated) | 130 µM (inactive) | 68.1 | 90.8 µM (inactive) | > 396 µM (inactive) | > 396 µM (inactive) | 258 µM (inactive) | 175 µM (inactive) | 132 µM (inactive) | 325 µM (inactive) | 117 µM (inactive) | – | 101 µM (inactive) | – | 90.2 µM (inactive) | – | 139 µM (inactive) | 105 µM (inactive) | 80 µM (inactive) |
| O=C1C2C(C(=O)N1c1ccccc1)C1(c3ccccc3)OC2(c2ccccc2)c2ccccc21 (configuration not stated) | > 100 µM (inactive) | > 100 | > 100 µM (inactive) | 4.14 µM (inactive) | > 100 µM (inactive) | > 100 µM (inactive) | > 100 µM (inactive) | > 100 µM (inactive) | 30.6 µM (inactive) | – | 12.8 µM (inactive) | > 100 µM (inactive) | > 100 µM (inactive) | > 100 µM (inactive) | > 100 µM (inactive) | > 100 µM (inactive) | – | > 100 µM (inactive) |
| COc1cc2cc3c4c(cc(OC)c(OC)c4c2cc1OC)CCN3 | 27.9 µM (inactive) | 32.9 | 22.1 µM (inactive) | – | 67.1 µM (inactive) | > 100 µM (inactive) | 14.6 µM (inactive) | > 100 µM (inactive) | 31.3 µM (inactive) | > 100 µM (inactive) | 44 µM (inactive) | 32.9 µM (inactive) | 69.2 µM (inactive) | 35.3 µM (inactive) | 32.9 µM (inactive) | 21.5 µM (inactive) | – | > 100 µM (inactive) |
| CN(C)C(=S)OC(Cn1cncn1)c1ccc(Cl)cc1Cl (configuration not stated) | > 100 µM (inactive) | > 100 | > 100 µM (inactive) | > 100 µM (inactive) | > 100 µM (inactive) | > 100 µM (inactive) | > 100 µM (inactive) | > 100 µM (inactive) | > 100 µM (inactive) | > 100 µM (inactive) | > 100 µM (inactive) | > 100 µM (inactive) | > 100 µM (inactive) | > 100 µM (inactive) | > 100 µM (inactive) | > 100 µM (inactive) | – | > 100 µM (inactive) |
| CC#CC(=O)Nc1ccccc1CC(c1c[nH]c2ccccc12)c1c[nH]c2ccccc12 | 16.1 µM (inactive) | 14.3 | 18.2 µM (inactive) | – | 20.6 µM (inactive) | 18.5 µM (inactive) | 20.4 µM (inactive) | 18.8 µM (inactive) | > 10 µM (inactive) | 15.5 µM (inactive) | 5.51 µM (inactive) | 16.2 µM (inactive) | 7.19 µM (inactive) | 5.68 µM (inactive) | 15 µM (inactive) | – | – | – |
| O=C(O)C[C@@H](Cl)[C@H](NC(=O)OCc1ccccc1)C(=O)O | > 100 µM (inactive) | > 100 | > 100 µM (inactive) | > 100 µM (inactive) | > 100 µM (inactive) | > 100 µM (inactive) | > 100 µM (inactive) | > 100 µM (inactive) | > 100 µM (inactive) | > 100 µM (inactive) | > 100 µM (inactive) | > 100 µM (inactive) | > 100 µM (inactive) | > 100 µM (inactive) | > 100 µM (inactive) | > 100 µM (inactive) | – | > 100 µM (inactive) |
| COC(=O)C1CCC2(C)[C@H](CCC3O[C@]32C)[C@@]1(C)CC(=O)c1ccoc1 (some centres not stated) | 46.1 µM (inactive) | 81.1 | – | > 100 µM (inactive) | > 100 µM (inactive) | 33.9 µM (inactive) | > 100 µM (inactive) | 0.0406 µM (active) | 21.2 µM (inactive) | > 100 µM (inactive) | – | – | 27.9 µM (inactive) | 28.3 µM (inactive) | > 100 µM (inactive) | 72.9 µM (inactive) | 41.5 µM (inactive) | 36.6 µM (inactive) |
| COC(=O)C1CC(=O)O[C@H]1c1ccc(OC)c(OC)c1 (some centres not stated) | > 100 µM (inactive) | > 100 | > 100 µM (inactive) | > 100 µM (inactive) | > 100 µM (inactive) | – | > 100 µM (inactive) | > 100 µM (inactive) | – | > 100 µM (inactive) | > 100 µM (inactive) | > 100 µM (inactive) | > 100 µM (inactive) | > 100 µM (inactive) | > 100 µM (inactive) | > 100 µM (inactive) | > 100 µM (inactive) | > 100 µM (inactive) |
| CC([C@H]1CCC2C3CCC4CC5(CC[C@]4(C)C3CC[C@@]21C)c1ccccc1C(=O)N5C)N(C)C (some centres not stated) | 15.7 µM (inactive) | 27.7 | 19.7 µM (inactive) | 29 µM (inactive) | > 100 µM (inactive) | 42.3 µM (inactive) | 17.9 µM (inactive) | > 100 µM (inactive) | 46.9 µM (inactive) | – | 3.45 µM (inactive) | 6.18 µM (inactive) | 13 µM (inactive) | 19.2 µM (inactive) | 13.9 µM (inactive) | 21.4 µM (inactive) | 18.1 µM (inactive) | 40.4 µM (inactive) |
